Measurements published in US20060025406A1, “Modulators of hepatocyte growth factor/c- Met activity” (Angion Biomedica Corporation, priority 2004, published 2006).

Experiments:
HUVEC cells = experiment: HGF/SF-induced HUVEC cell proliferation ([3H]-thymidine incorporation); assay type: cell-based, human; details: HGF/SF 25 ng/ml, overnight, FIG. 1A
Procedure: Compounds of the invention were tested for HGF/SF inhibitory activity in HGF/SF-induced HUVEC cell proliferation in vitro. Briefly, HUVEC cells were seeded into 48-well plates and serum starved for 2 hours in medium containing 1% BSA, and then treated with test compounds in multiple concentrations in the presence or absence of HGF/SF (25 ng/ml, R&D Systems) overnight. This experiment also included negative (vehicle alone) and positive (HGF/SF alone) controls. Cell proliferation was measured by the incorporation of [^3H]-thymidine and counted using Beta scintillation counter.

[1] = system: A549 human lung carcinoma cells; experiment: MTT assay, cell viability; assay type: cell-based; details: 72 hours continuous exposure
Procedure: To investigate the effect of c-Met antagonist compound A on inhibiting the growth of A549 human lung carcinoma cells in vitro, an MTT assay was carried out to determine cell viability. Cells were plated in 96-well plates at 5000 cells/well in complete medium, in the absence of drug. After 24 hours to allow for cell attachment, cells were incubated for 72 hours with the tested compounds (5 different concentrations) or vehicle. Cells were then exposed to MTT for 4 hours, and absorbance was measured at a wavelength of […].

[2] = system: A549 human lung carcinoma cells; experiment: A549 subcutaneous xenograft; assay type: in vivo, Balb C nude mice; details: 5 mg/kg i.p. daily for 3 weeks
Procedure: To investigate the effect of c-Met antagonist compound A on inhibiting the growth of A549 human lung carcinoma cells in vivo, 2×10^6 cells of A549 were injected subcutaneously into the right hind flank of male Balb C nude mice. Tumors were allowed to develop for 12 days and then animals were treated with compound A at 5 mg/kg i.p. daily for 3 weeks. Tumor size measurements were made twice weekly and volumes calculated ((length×width^2)/2 (mm^3)) Final weight of excised tumors was measured at the end of the 3-week treatment period (0.78 g for control vs. 0.05 g for compound A treated).

Structure (SMILES)	inhibition of HGF/SF stimulation of endothelial cell proliferation (HUVEC cells)	IC50 [1]	tumor volume and weight [2]	final weight of excised tumors ([2]; control 0.78 g)
CC(C)=CC1C(CNc2nc(Nc3ccccc3C(C)C)c3ccccc3n2)C1(C)C (centres unmarked) [B]	inhibited HGF/SF stimulation of endothelial cell proliferation			
OCc1ccccc1Sc1ccccc1CNc1nc(NC2CCCC2)c2ccccc2n1 [compound A]	inhibited HGF/SF stimulation of endothelial cell proliferation	2.9 µM	significantly reduced tumor volume and weight	0.05 g
